We go through 14 compounds from patent publication US20080119513A1, “Sulfonamide Derivative Selectively Inhibiting Mmp-13” (priority 2004, published 2008).

Each structure is given as a SMILES string.

Common to all, as to assay type: biochemical
One assay has as its target T1, MMP-13 (Homo sapiens, UniProt P45452).
T1 construct: catalytic domain (^104Tyr˜^267Gly) was amplified with RT-PCR; His-tag; enterokinase digestion-site
Nature of the assay: Assay for inhibitory activities on MMPs (fluorogenic peptide substrate), MMP-13. How it is done:
In regard to MMP-13, mRNA was prepared from carcinoma cell SW1353 derived from human cartilage stimulate by IL-1 and TNF, and catalytic domain (^[…]) was amplified with RT-PCR. This was cloned in Escherichia coli expression vector […] inserted with His-tag sequence and enterokinase digestion-site, induced and expressed by IPTG (Isopropyl-β-D-thiogalactopyranoside) and expressed in an insoluble fraction. Isolation of MMP-13 from an insoluble fraction was carried out by dissolving in modifier (6 M urea) by a usual method and purification with metal chelate chromatography (Ni […] Sepharose). And then removing modifier (6 M urea) with dialyze and refolding of the enzyme spontaneously gave activated MMP-13. The enzymatic activity on MMPs was analyzed by the method described in “C. Graham Knight, Frances Willenbrock and Gillian Murphy: A novel coumarin-labelled peptide for sensitive continuous assays of the matrix metalloproteinases: FEBS LETT., 296, (1992), 263-266”. The substrate: MOCAc-[…] was purchased from Peptide Institute, Inc., Osaka, Japan. The measurement of the inhibitory activities (IC50) was carried out by the following four methods; (A) Reaction with substrate, enzyme (MMPs) and inhibitor (B) Reaction with substrate and inhibitor, without enzyme (C) Reaction with substrate and enzyme (MMPs), without inhibitor (D) Reaction with substrate only IC50 values were calculated by using the following formula and each fluorescence values of above four methods (A to D). % inhibition={1-(A-B)/(C-D)}×100 IC50 means the concentration required to inhibit 50% of the enzyme activity. The value of inhibitory activity against MMP-2, MMP-8, MMP-9, MMP-12, and MMP-13 measured by above mentioned methods are shown in Table 25 and 26.

The target in the next assay is MMP-9 (Homo sapiens, UniProt P14780). Kind of assay: Assay for inhibitory activities on MMPs (fluorogenic peptide substrate), MMP-9. The text has this: MMP-9 was isolated and purified by the procedure of Y. Okada et al. (Yasunori Okada, Yukio Gonoji, Katsumi Naka, Katsuro Tomita, Isao Nakanishi, Kazushi Iwata, Kyoko Yamashita, and Taro Hayakawa: Matrix metalloproteinase 9 (92-kDa gelatinase/type IV collagenase) from HT1080 human fibrosarcoma cells. Purification and activation of the precursor and enzymic properties, J. Biol. Chem., 1992, 267, 21712-21719) in combination with other following methods: 1) Yasunori Okada, Tatsuhisa Morodomi, Jan J, Enghild, Ko Suzuki, Atsushi Yasui, Isao Nakanishi, Guy Salvesen and Hideaki Nagase: Matrix metalloproteinase 2 from human rheumatoid synovial fibroblasts. Purification and activation of the precursor and enzymic properties, Eur. J. Biochem., 1990, 194, 721-730; 2) Robin V Ward, Rosalind M Hembry, John J Reynolds and Gillian Murphy: The purification of tissue inhibitor of metalloproteinase-2 from its 72 kDa progelatinase complex. Biochem. J., 1991, 278, 179-187. In detail, human fibrosarcoma ATCC HT1080 cell line was cultured to confluent in Dulbecco's Modified Medium (DMEM) containing 10% fetal-calf serum at 37° C. for 48 hours. Subsequently, the medium of confluent culture was changed to serum-free DMEM medium. To obtain MMP-9, phorbol-12-myristate-13-acetate (TPA) must be added to this serum-free DMEM medium at a concentration of 50 ng/ml. The TPA-treated medium was centrifuged at 3000 rpm for 15 min, and the supernatant was concentrated to 450 ml by a Toyo-Roshi UP-20 apparatus with an ultrafiltration membrane. Then, proMMP-9 in this concentrated solution was purified by using columns of Gelatin-Sepharose and Concanavalin A-Sepharose. The pool containing proMMP-9 was dialyzed, concentrated (Toyo-Roshi UP-20) and applied to columns of Sephacryl S-200 and Green A matrix for the separation from TIMPs. The obtained proMMP-9 fraction was activated by TPCK-Trypsin (Final conc.: 3 μg/501 React Mix.).
Chain of MMP-9 (P14780 107-707): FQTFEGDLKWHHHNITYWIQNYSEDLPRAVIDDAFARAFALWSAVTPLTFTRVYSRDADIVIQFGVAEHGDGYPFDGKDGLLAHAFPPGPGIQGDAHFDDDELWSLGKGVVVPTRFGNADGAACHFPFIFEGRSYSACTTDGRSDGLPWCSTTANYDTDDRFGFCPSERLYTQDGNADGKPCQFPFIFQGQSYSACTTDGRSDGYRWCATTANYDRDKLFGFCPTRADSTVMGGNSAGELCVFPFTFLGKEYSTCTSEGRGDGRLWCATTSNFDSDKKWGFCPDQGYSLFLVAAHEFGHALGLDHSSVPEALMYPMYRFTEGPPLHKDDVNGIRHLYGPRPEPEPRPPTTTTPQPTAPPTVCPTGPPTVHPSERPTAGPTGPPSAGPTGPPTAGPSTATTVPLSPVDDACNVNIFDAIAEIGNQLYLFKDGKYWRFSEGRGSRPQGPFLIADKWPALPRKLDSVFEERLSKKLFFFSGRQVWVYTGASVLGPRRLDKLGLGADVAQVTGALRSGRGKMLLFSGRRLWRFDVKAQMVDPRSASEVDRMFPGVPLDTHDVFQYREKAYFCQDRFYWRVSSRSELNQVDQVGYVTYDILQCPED
(§1) The enzymatic activity on MMPs was analyzed by the method described in “C. Graham Knight, Frances Willenbrock and Gillian Murphy: A novel coumarin-labelled peptide for sensitive continuous assays of the matrix metalloproteinases: FEBS LETT., 296, (1992), 263-266”. The substrate: MOCAc-Pro-Leu-Gly-Leu-A2Pr(DNP)-Ala-Arg-NH2 was purchased from Peptide Institute, Inc., Osaka, Japan. The measurement of the inhibitory activities (IC50) was carried out by the following four methods;
(§2) (A) Reaction with substrate, enzyme (MMPs) and inhibitor
(§3) (B) Reaction with substrate and inhibitor, without enzyme
(§4) (C) Reaction with substrate and enzyme (MMPs), without inhibitor
(§5) (D) Reaction with substrate only
(§6) IC50 values were calculated by using the following formula and each fluorescence values of above four methods (A to D).
(§7) % inhibition={1-(A−B)/(C−D)}×100
(§8) IC50 means the concentration required to inhibit 50% of the enzyme activity.
(§9) The value of inhibitory activity against MMP-2, MMP-8, MMP-9, MMP-12, and MMP-13 measured by above mentioned methods are shown in Table 25 and 26.

A further assay concerns the target T2, MMP-2 (Homo sapiens, UniProt P08253).
T2 sequence (P08253 110-660): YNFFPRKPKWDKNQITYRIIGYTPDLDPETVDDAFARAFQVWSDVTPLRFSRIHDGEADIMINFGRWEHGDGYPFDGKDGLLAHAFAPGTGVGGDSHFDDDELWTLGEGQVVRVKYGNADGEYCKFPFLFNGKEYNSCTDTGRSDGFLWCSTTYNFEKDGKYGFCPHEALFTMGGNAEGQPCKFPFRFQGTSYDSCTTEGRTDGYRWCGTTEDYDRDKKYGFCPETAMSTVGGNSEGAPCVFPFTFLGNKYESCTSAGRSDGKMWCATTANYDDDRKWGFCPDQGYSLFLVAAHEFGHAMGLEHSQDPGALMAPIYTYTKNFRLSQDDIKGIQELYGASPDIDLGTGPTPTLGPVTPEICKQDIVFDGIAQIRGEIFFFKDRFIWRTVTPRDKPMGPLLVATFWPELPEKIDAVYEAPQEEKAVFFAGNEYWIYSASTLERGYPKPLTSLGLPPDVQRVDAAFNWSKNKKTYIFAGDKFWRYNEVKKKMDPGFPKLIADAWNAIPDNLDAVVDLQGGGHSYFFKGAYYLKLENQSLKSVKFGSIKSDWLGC
Nature of the assay: Assay for inhibitory activities on MMPs (fluorogenic peptide substrate), MMP-2. How it is done:
MMP-2 was purchased from Calbiochem-Novabiochem International, Inc.
as §1, §2, §3, §4, §5, §6, §7, §8, §9

A further assay has as its target T3, MMP-12 (Homo sapiens, UniProt P39900).
T3 construct: In regard to MMP-12, catalytic domain (^100Phe˜^263Gly) was amplified with RT-PCR; His-tag; enterokinase digestion-site
Kind of assay: Assay for inhibitory activities on MMPs (fluorogenic peptide substrate), MMP-12. How it is done:
In regard to MMP-12, catalytic domain (^100Phe˜^263Gly) was amplified with RT-PCR from Human Placenta Total RNA. This was cloned in Escherichia coli expression vector pTrc99AHE inserted with His-tag sequence and enterokinase digestion-site, induced and expressed by IPTG (Isopropyl-β-D-thiogalactopyranoside) and expressed in an insoluble fraction. Isolation of MMP-12 from an insoluble fraction was carried out by dissolving in modifier (6 M urea) by a usual method and purification with metal chelate chromatography (Ni Chelateing Sepharose). And then removing modifier (6 M urea) with dialysis and refolding of the enzyme spontaneously gave activated MMP-12.
as §1, §2, §3, §4, §5, §6, §7, §8, §9

For the next assay, the target named is T4, MMP-8 (Homo sapiens, UniProt P22894).
T4 construct: In regard to MMP-8, catalytic domain (^99Phe˜^262Gly) was amplified with PCR; His-tag; enterokinase digestion-site
T4 sequence (P22894 99-262): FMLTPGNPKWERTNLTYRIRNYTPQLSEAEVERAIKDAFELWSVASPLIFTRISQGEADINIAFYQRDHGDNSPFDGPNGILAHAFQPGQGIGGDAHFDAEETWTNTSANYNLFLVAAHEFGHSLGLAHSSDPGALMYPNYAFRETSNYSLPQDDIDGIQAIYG
Kind of assay: Assay for inhibitory activities on MMPs (fluorogenic peptide substrate), MMP-8.
From the text: In regard to MMP-8, catalytic domain (^99Phe˜^262Gly) was amplified with PCR using commercial available Human Bone Marrow cDNA. This was cloned in Escherichia coli expression vector pTrc99AHE inserted with His-tag sequence and enterokinase digestion-site, induced and expressed by IPTG (Isopropyl-β-D-thiogalactopyranoside) and expressed in a insoluble fraction (Than F. Ho, M. Walid Qoronfleh, Robert C. Wahl, Trica A. Pulvino, Karen J. Vavra, Joe Falvo, Tracey M. Banks, Patricia G. Brake and Richard B. Ciccarelli: Gene expression, purification and characterization of recombinant human neutrophil collagenase. Gene 146, (1994) 297-301. It was prepared by the method in a slight modification). Isolation of MMP-8 from an insoluble fraction was carried out by dissolving in modifier (6 M urea) by a usual method and purification with metal chelate chromatography. And then removing modifier (6 M urea) with dialysis and refolding of the enzyme spontaneously gave activated MMP-8.
as §1, §2, §3, §4, §5, §6, §7, §8, §9

T3 sequence (P39900 100-263): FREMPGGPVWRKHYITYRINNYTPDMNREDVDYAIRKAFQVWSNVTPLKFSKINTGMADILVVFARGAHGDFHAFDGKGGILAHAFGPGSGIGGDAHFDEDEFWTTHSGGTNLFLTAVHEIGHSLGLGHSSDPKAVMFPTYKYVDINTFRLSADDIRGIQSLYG

Regarding `CSCC[C@H](NS(=O)(=O)c1ccc(-c2ccc(C#Cc3ccc4ccccc4c3)cc2)cc1)C(=O)O` [III-10], the IC50 on MMP-13 was 2.86 nM; on MMP-9, greater than 10000 nM; against MMP-2, 374 nM; against MMP-12, 29.7 nM; on MMP-8, 25.9 nM.
The like results for `O=C(O)[C@H](Cc1ccccc1)NS(=O)(=O)c1ccc(-c2ccc(C#Cc3ccc4ccccc4c3)cc2)cc1` [III-12] were, in that order, 35.7 nM, greater than 10000 nM, 8990 nM, 888 nM and 270 nM.
For `O=C(O)[C@@H](CC1CCCCC1)NS(=O)(=O)c1ccc(-c2ccc(C#Cc3ccc4ccccc4c3)cc2)cc1` [III-15], in that order: 225 nM, greater than 10000 nM, greater than 10000 nM, greater than 10000 nM and 7680 nM.
For `COc1ccc2cc(C#Cc3ccc(-c4ccc(S(=O)(=O)N[C@H](C)C(=O)O)cc4)cc3)ccc2c1` [III-17], in that order: 5.6 nM, greater than 10000 nM, greater than 10000 nM, greater than 10000 nM and greater than 10000 nM.
On to `COc1ccc2cc(C#Cc3ccc(-c4ccc(S(=O)(=O)N[C@@H](C)C(=O)O)cc4)cc3)ccc2c1` [III-18], for which the IC50 was 19.9 nM at MMP-13; greater than 10000 nM at MMP-9; greater than 10000 nM against MMP-2; greater than 10000 nM against MMP-12; greater than 10000 nM on MMP-8.
Regarding `COc1ccc2cc(C#Cc3ccc(-c4ccc(S(=O)(=O)N[C@@H](C(=O)O)C(C)C)cc4)cc3)ccc2c1` [III-20], the IC50 was 15 nM against MMP-13; greater than 10000 nM on MMP-9; 167 nM against MMP-2; 128 nM on MMP-12; 154 nM on MMP-8.
Consider `COc1ccc2cc(C#Cc3ccc(-c4ccc(S(=O)(=O)N[C@H](C(=O)O)C(C)C)cc4)cc3)ccc2c1` [III-21], for which the IC50 is 5.73 nM at MMP-13; greater than 10000 nM at MMP-9; greater than 4000 nM against MMP-2; 58.3 nM on MMP-12; 36.9 nM against MMP-8.
For `COc1ccc2cc(C#Cc3ccc(-c4ccc(S(=O)(=O)N[C@H](CC(C)C)C(=O)O)cc4)cc3)ccc2c1` [III-22], in that order: 55.7 nM, greater than 10000 nM, greater than 10000 nM, 9680 nM and 5710 nM.
The like results for `CCC(C)[C@H](NS(=O)(=O)c1ccc(-c2ccc(C#Cc3ccc4cc(OC)ccc4c3)cc2)cc1)C(=O)O` (stereo partly shown) [III-23] were, in that order, 16.3 nM, greater than 10000 nM, 602 nM, 50.7 nM and 41.6 nM.
For `COc1ccc2cc(C#Cc3ccc(-c4ccc(S(=O)(=O)N[C@H](CCSC)C(=O)O)cc4)cc3)ccc2c1` [III-24], in that order: 6.32 nM, greater than 10000 nM, 239 nM, 146 nM and 190 nM.
Consider `COc1ccc2cc(C#Cc3ccc(-c4ccc(S(=O)(=O)N[C@@H](CCSC)C(=O)O)cc4)cc3)ccc2c1` [III-25], for which the IC50 at MMP-13 is 24.2 nM; on MMP-9, greater than 10000 nM; at MMP-2, 2850 nM; on MMP-12, 117 nM; against MMP-8, 89.3 nM.
The like results for `COc1ccc2cc(C#Cc3ccc(-c4ccc(S(=O)(=O)N[C@H](CC(=O)O)C(=O)O)cc4)cc3)ccc2c1` [III-26] were, in that order, 3.85 nM, greater than 10000 nM, 5410 nM, greater than 10000 nM and 519 nM.
For `COc1ccc2cc(C#Cc3ccc(-c4ccc(S(=O)(=O)N[C@H](CCC(=O)O)C(=O)O)cc4)cc3)ccc2c1` [III-27], in that order: 2.71 nM, greater than 10000 nM, 58.9 nM, 36.8 nM and 33.3 nM.
The like results for `COc1ccc2cc(C#Cc3ccc(-c4ccc(S(=O)(=O)N[C@H](Cc5ccccc5)C(=O)O)cc4)cc3)ccc2c1` [III-28] were, in that order, 15.7 nM, greater than 5000 nM, greater than 5000 nM, 2200 nM and greater than 5000 nM.

One may read the IC50 as the point on the concentration scale where inhibition reaches its midpoint.
